Reference: patent publication US11814392B2, “Chromenopyridine-based compounds and methods of making and use thereof” (Rosalind Franklin University of Medicine and Science, priority 2020, dated 2023)

Key:
[1] = system: MCF7; test: NCI 60 five-dose screening, MCF7
Method: (§1) The National Cancer Institute's Developmental Therapeutic preclinical 60 human cancer cell lines were used for an in vitro screen. […] The one-dose and five-dose experiments were conducted according to standard NCI protocols.
(§2) The human tumor cell lines of the cancer screening panel are grown in RPMI 1640 medium containing 5% fetal bovine serum and 2 mM L-glutamine. For a typical screening experiment, cells are inoculated into 96 well microtiter plates in 100 μL at plating densities ranging from 5,000 to 40,000 cells/well depending on the doubling time of individual cell lines. After cell inoculation, the microtiter plates are incubated at 37° C., 5% CO2, 95% air and 100% relative humidity for 24 h prior to addition of experimental drugs.
(§3) After 24 h, two plates of each cell line are fixed in situ with TCA, to represent a measurement of the cell population for each cell line at the time of drug addition (Tz). […]
(§4) Following drug addition, the plates are incubated for an additional 48 h at 37° C., 5% CO2, 95% air, and 100% relative humidity. […] Bound stain is subsequently solubilized with 10 mM trizma base, and the absorbance is read on an automated plate reader at a wavelength of 515 nm. […] Using the seven absorbance measurements [time zero, (Tz), control growth, (C), and test growth in the presence of drug at the five concentration levels (Ti)], the percentage growth is calculated at each of the drug concentrations levels. Percentage growth inhibition is calculated as: [(Ti−Tz)/(C−Tz)]×100 for concentrations for which Ti>/=Tz [(Ti−Tz)/Tz]×100 for concentrations for which Ti<Tz.
(§5) Three dose response parameters are calculated for each experimental agent. […] The drug concentration resulting in total growth inhibition (TGI) is calculated from Ti=Tz. […] Values are calculated for each of these three parameters if the level of activity is reached; however, if the effect is not reached or is exceeded, the value for that parameter is expressed as greater or less than the maximum or minimum concentration tested.

[2] = system: UO-31; test: NCI 60 five-dose screening, UO-31
Method: as §1, §2, §3, §4, §5

[3] = system: SK-MEL-2; test: NCI 60 five-dose screening, SK-MEL-2
Method: as §1, §2, §3, §4, §5

[4] = system: SK-MEL-5; test: NCI 60 five-dose screening, SK-MEL-5
Method: as §1, §2, §3, §4, §5

[5] = system: TK-10; test: NCI 60 five-dose screening, TK-10
Method: as §1, §2, §3, §4, §5

[6] = system: MDA-MB-468; test: NCI 60 five-dose screening, MDA-MB-468; assay type: cell-based, human
[7] = system: SF-268; test: NCI 60 five-dose screening, SF-268
Method: as §1, §2, §3, §4, §5

[8] = system: SF-539; test: NCI 60 five-dose screening, SF-539
Method: as §1, §2, §3, §4, §5

[9] = system: A549/ATCC; test: NCI 60 five-dose screening, A549/ATCC; assay type: cell-based, human; settings: A549/ATCC (Non-small cell Lung), 48 h
[10] = system: SNB-75; test: NCI 60 five-dose screening, SNB-75
Method: as §1, §2, §3, §4, §5

[11] = system: SR; test: NCI 60 five-dose screening, SR; settings: Homo sapiens, 48 h
Method: as §1
The human tumor cell lines of the cancer screening panel are grown in RPMI 1640 medium containing 5% fetal bovine serum and 2 mM L-glutamine. For a typical screening experiment, cells are inoculated into 96 well microtiter plates in 100 μL at plating densities ranging from 5,000 to 40,000 cells/well depending on the doubling time of individual cell lines. […]
as §4
Three dose response parameters are calculated for each experimental agent. […]

**Q.** With `COc1ccc(SC2c3cc(OC)c(OC)cc3Oc3nc(N)c(C#N)c(N)c32)cc1` (stereo not shown) [Compound 1, 2,4-diamino-7,8-dimethoxy-5-((4-methoxyphenyl)thio)-5H-chromeno[2,3-b]pyridine-3-carbonitrile] as the compound, how does the GI50 ([1]; Homo sapiens, MCF7, 48 h) read?
**A.** Its GI50 is 0.45 µM.

**Q.** What about the CC50 ([1]; Homo sapiens, MCF7, 48 h, read-out: LC50) of the same compound?
**A.** Its CC50 is 8.47 µM.

**Q.** What about the TGI ([1]; MCF7 (Breast Cancer), five-dose, 48 h) of the same compound?
**A.** The TGI was 2.10 µM.

**Q.** What about the GI50 ([2]; Homo sapiens, UO-31, 48 h) of the same compound?
**A.** Its GI50 is 1.34 µM.

**Q.** What about the CC50 ([2]; Homo sapiens, UO-31, 48 h, read-out: LC50) of the same compound?
**A.** The CC50 was 5.11 µM.

**Q.** And the TGI ([2]; UO-31 (Renal Cancer), five-dose, 48 h)?
**A.** The TGI was 2.61 µM.

**Q.** And the GI50 ([3]; Homo sapiens, SK-MEL-2, 48 h)?
**A.** The GI50 was 1.37 µM.

**Q.** And the CC50 ([3]; Homo sapiens, SK-MEL-2, 48 h, read-out: LC50)?
**A.** The CC50 was 5.76 µM.

**Q.** What about the TGI ([3]; SK-MEL-2 (Melanoma), five-dose, 48 h) of the same compound?
**A.** Its TGI is 2.80 µM.

**Q.** And the GI50 ([4]; Homo sapiens, SK-MEL-5, 48 h)?
**A.** The GI50 was 1.5 µM.

**Q.** And the CC50 ([4]; Homo sapiens, SK-MEL-5, 48 h, read-out: LC50)?
**A.** Its CC50 is 5.33 µM.

**Q.** What about the TGI ([4]; SK-MEL-5 (Melanoma), five-dose, 48 h) of the same compound?
**A.** Its TGI is 2.82 µM.

**Q.** And the GI50 ([5]; Homo sapiens, TK-10, 48 h)?
**A.** The GI50 was 1.63 µM.

**Q.** What about the CC50 ([5]; Homo sapiens, TK-10, 48 h, read-out: LC50) of the same compound?
**A.** Its CC50 is 5.55 µM.

**Q.** What about the TGI ([5]; TK-10 (Renal Cancer), five-dose, 48 h) of the same compound?
**A.** The TGI was 3.01 µM.

**Q.** What about the CC50 ([6]; Homo sapiens, MDA-MB-468, 48 h, read-out: LC50) of the same compound?
**A.** The CC50 was 5.62 µM.

**Q.** What about the GI50 ([6]; Homo sapiens, MDA-MB-468 (Breast Cancer), five-dose, 48 h) of the same compound?
**A.** Its GI50 is 0.32 µM.

**Q.** And the TGI ([6]; MDA-MB-468 (Breast Cancer), five-dose, 48 h)?
**A.** Its TGI is 1.53 µM.

**Q.** And the GI50 ([7]; Homo sapiens, SF-268, 48 h)?
**A.** Its GI50 is 1.55 µM.

**Q.** And the CC50 ([7]; Homo sapiens, SF-268, 48 h, read-out: LC50)?
**A.** The CC50 was 6.05 µM.

**Q.** What about the TGI ([7]; SF-268 (CNS Cancer), five-dose, 48 h) of the same compound?
**A.** The TGI was 3.07 µM.

**Q.** And the GI50 ([8]; Homo sapiens, SF-539, 48 h)?
**A.** The GI50 was 1.38 µM.

**Q.** What about the CC50 ([8]; Homo sapiens, SF-539, 48 h, read-out: LC50) of the same compound?
**A.** Its CC50 is 5.2 µM.

**Q.** What about the TGI ([8]; SF-539 (CNS Cancer), five-dose, 48 h) of the same compound?
**A.** Its TGI is 2.68 µM.

**Q.** What about the TGI [9] of the same compound?
**A.** Its TGI is 3.84 µM.

**Q.** And the GI50 ([9]; Homo sapiens)?
**A.** Its GI50 is 2.01 µM.

**Q.** And the GI50 ([10]; Homo sapiens, SNB-75, 48 h)?
**A.** The GI50 was 1.31 µM.

**Q.** And the CC50 ([10]; Homo sapiens, SNB-75, 48 h, read-out: LC50)?
**A.** Its CC50 is 5.24 µM.

**Q.** What about the TGI ([10]; SNB-75 (CNS Cancer), five-dose, 48 h) of the same compound?
**A.** Its TGI is 2.62 µM.

**Q.** What about the GI50 [11] of the same compound?
**A.** Its GI50 is 0.27 µM.

**Q.** And the CC50 ([11]; read-out: LC50)?
**A.** Its CC50 is over 100 µM.
